From PubChem BioAssay AID1996
In brackets after ≈: the same amount, converted by molar mass.

conditions: buffer; pH 7.4; 200.0 µM

| Structure (SMILES) | solubility kinetic [µg/mL] |
| --- | --- |
| CC(C)Cc1nnc(NC(=O)CCC(=O)N2CCCCC2)s1 | > 48.7 |
| CC1CCCCC12NC(=O)N(CC(=O)NCCc1ccccc1)C2=O (centres undefined) | > 51.5 |
| O=C(CSCCS(=O)(=O)c1ccc(Cl)cc1)Nc1ccccc1 | 3.5 (≈ 9.46 µM) |
| Cc1cc(-c2ccccc2)nc(-c2ccccc2)c1C | < 0.6 |
| COc1ccc(Cl)cc1-c1csc(N)n1 | 34.1 (≈ 142 µM) |
| COc1ccc(-c2csc(-c3cccs3)n2)c(OC)c1 | 0.8 (≈ 2.64 µM) |
| COc1ccc2c(c1)c(C(=O)O)c(C)n2CCc1ccc(OC)c(OC)c1 | > 55.4 |
| NS(=O)(=O)c1ccc(CCNC(=O)Cc2ccc(Cl)cc2)cc1 | > 52.9 |
| Nc1nc(-c2ccccc2)c(C(=O)Nc2ccccc2)s1 | 9.4 (≈ 31.8 µM) |
| O=C(COC(=O)c1ccccc1O)NCc1ccc2c(c1)OCO2 | 5.7 (≈ 17.3 µM) |
| C(=N\Nc1nc2ccccc2[nH]1)/C1CCCCC1 | > 36.3 |
| CN1CCN(C(=O)CCC(=O)O)CC1 | 26.5 (≈ 132 µM) |
| CC(=O)c1cccc(NC(=O)CN2C(=O)c3ccccc3C2=O)c1 | 13.9 (≈ 43.1 µM) |
| COc1cccc(C(=O)Nc2cccc3ccccc23)c1 | 1.5 (≈ 5.41 µM) |
| CSc1ncc(C(=O)Nc2ccccc2)cn1 | > 36.8 |
| O=C(NC(=S)Nc1cccc2ncccc12)c1ccccc1 | 2.7 (≈ 8.78 µM) |
| COc1cccc(C(=O)N(C)Cc2c(C)nn(C3CCS(=O)(=O)C3)c2C)c1 (centres undefined) | > 58.7 |
| CC(C)C(NC(=O)c1ccc(F)cc1)C(=O)N1CCC1 (centres undefined) | > 41.7 |
| O=C(NCC(=O)N1CCOCC1)c1ccc(Br)cc1 | > 49.1 |
| COc1ccc(NC(=O)c2cc([N+](=O)[O-])ccc2N2CCCCC2)cc1 | 0.3 (≈ 0.844 µM) |

| Structure (SMILES) | solubility kinetic [µg/mL] |
| --- | --- |
| COC(=O)c1ccc2c(=O)[nH]c(COC(=O)c3[nH]c(C)c(C(C)=O)c3C)nc2c1 | 18.1 (≈ 45.5 µM) |
| Cc1nc2ccc(C(=O)N3CCN(Cc4ccccc4)CC3)cc2[nH]1 | 49.7 (≈ 149 µM) |
| CC1=C(C)C(OCCBr)N(c2cc(O)c(Cl)cc2F)C1=O (centres undefined) | > 56.8 |
| COc1ccc(NC(=O)c2cc(=O)c3ccccc3o2)cc1Cl | < 0.7 |
| O=C(CSCc1ccccc1Cl)NCCSc1ccccn1 | 50.4 (≈ 143 µM) |
| Cl.NC(N)=NC(N)=NCCc1ccccc1 | > 36.3 |
| CC(=O)c1sc2nsc(SCCN3CCCCC3)c2c1N | 47.5 (≈ 139 µM) |
| CN1CCc2c1nc1ccccc1c2NC(=O)CN1CCCC1 | 28.9 (≈ 93.1 µM) |
| O=C(/C=C/c1ccc([N+](=O)[O-])cc1)c1cccs1 | 1.6 (≈ 6.17 µM) |
| COCCN(C)Cc1nc(C(c2ccccc2)c2ccccc2)no1 | 37.7 (≈ 112 µM) |
| CCOC(=O)C1(CC2CC2)CCN(S(=O)(=O)/C=C/c2ccccc2)CC1 | 3.6 (≈ 9.54 µM) |
| COC(=O)C1C(O)=C(C=Nc2cccc3ccccc23)C(=O)CC1(C)C (centres undefined) | 31.6 (≈ 89.9 µM) |
| CCOc1ccc(-n2ccnc(SCC(=O)NC3CCCC3)c2=O)cc1 | 32.6 (≈ 87.3 µM) |
| Cc1cccc(N2C(=O)CSC23CCCCC3)c1 | 20.3 (≈ 77.7 µM) |
| Cc1cc(Nc2cccc([N+](=O)[O-])c2)c2cccc(C)c2n1.Cl | 5.5 |
| Cc1cccc2cc(C#N)c(N3CCOCC3)nc12 | 1.7 (≈ 6.71 µM) |
| COc1ccc(NC(=O)C2Cc3ccccc3O/C2=N\O)cc1 (centres undefined) | 10.2 (≈ 32.7 µM) |
| O=C(c1ccc(NS(=O)(=O)c2cccc(F)c2)cc1)N1CCCC1 | 51.2 (≈ 147 µM) |
| CSc1sc(-c2ccnc(=S)[nH]2)c(-c2ccccc2)c1C#N | 8.2 (≈ 24 µM) |
| COc1ccc(N(Cc2cc(=O)[nH]c3ccccc23)C(C)=O)cc1 | > 48.4 |

| Structure (SMILES) | solubility kinetic [µg/mL] |
| --- | --- |
| COc1ccc(CCNC(=O)c2cc(C3CC3)on2)cc1OC | > 47.5 |
| O=S(=O)(c1ccc2c(c1)CCCC2)N1CCNCC1 | > 42.1 |
| CC(=O)OCC[N+](C)(C)C.[O-][Cl+3]([O-])([O-])[O-] | > 36.8 |
| CCn1c(C)nnc1SCC(=O)Nc1ccc(C(C)=O)cc1 | > 47.8 |
| Cn1c(SCC(=O)Nc2ccc(Cl)cc2)nc(O)cc1=O | > 48.9 |
| O=[N+]([O-])c1ccc(N2CCN(c3ccccc3F)CC2)nc1 | 0.7 (≈ 2.32 µM) |
| C/C(=N\NC=O)c1ccncc1 | > 24.5 |
| CCC(C)[C@H](NC(=O)Nc1ccccc1F)C(=O)OC (some centres undefined) | > 42.3 |
| O=c1[nH]c(=S)n(Cc2ccc(F)cc2)c(O)c1C=NCCCn1ccnc1 | > 58.1 |
| C#CCOc1ccc2ccccc2c1/C=C(/C#N)c1ccc(C(=O)O)cc1 | 53 (≈ 150 µM) |
| COc1ccc(C)cc1S(=O)(=O)n1c([N+](=O)[O-])cnc1C | > 46.7 |
| COc1ccc(NC(=O)COC(=O)c2cc(S(=O)(=O)N3CCCC3)ccc2O)cc1 | > 65.2 |
| CC(=O)N/C(=C\c1ccccc1)C(=O)OCC(=O)c1c(N)n(C)c(=O)n(C)c1=O | 18.2 (≈ 45.5 µM) |
| Cc1cccc(C2=NOC(=O)/C2=C\c2ccccc2F)c1 | 6.5 (≈ 23.1 µM) |
| Cc1ccc(OCc2nc(-c3cccs3)no2)c([N+](=O)[O-])c1 | 0.9 (≈ 2.84 µM) |
| Cc1nc(SCC(=O)NC2CC2)c2c(C)c(C)sc2n1 | 11.6 (≈ 37.7 µM) |
| O=C(CSCc1ccccc1)NCCc1ccc(F)cc1 | 41.5 (≈ 137 µM) |
| O=[N+]([O-])/C=C1\CCCCCN1 | > 23.4 |
| CC1Cc2ccccc2N1C1=CC(=O)CCC1 (centres undefined) | > 34.1 |
